According to ChEMBL document CHEMBL3885881, “DrugMatrix”:

Species: Rattus norvegicus
Assay: DrugMatrix - Regimen: Daily Repeat
Format: toxicity, organism-based, Sprague-Dawley
Parameters: regimen Daily Repeat, gender Male, age 6-8 weeks
Conditions: in vivo, iv, vehicle 100 % SALINE; for ABSOLUTE BASOPHIL / ABSOLUTE EOSINOPHIL / ABSOLUTE LYMPHOCYTE / ABSOLUTE MONOCYTE / ABSOLUTE SEGMENTED NEUTROPHIL / BASOPHIL / EOSINOPHIL / ERYTHROCYTE COUNT / HEMATOCRIT / HEMOGLOBIN / LEUKOCYTE COUNT / LYMPHOCYTE / MEAN CORPUSCULAR HEMOGLOBIN / MEAN CORPUSCULAR HEMOGLOBIN CONCENTRATION / MEAN CORPUSCULAR VOLUME / MONOCYTE / NEUTROPHIL / NUCLEATED RED BLOOD CELLS / PLATELET COUNT: tissue Blood; for ALANINE AMINOTRANSFERASE / ALBUMIN / ALKALINE PHOSPHATASE / ASPARTATE AMINOTRANSFERASE / BLOOD UREA NITROGEN / CARBON DIOXIDE / CHLORIDE / CHOLESTEROL / CREATINE PHOSPHOKINASE / CREATININE / GLUCOSE / LACTATE DEHYDROGENASE / LIPASE / PHOSPHORUS / POTASSIUM / SODIUM / TOTAL BILIRUBIN / TOTAL PROTEIN / URIC ACID: tissue Plasma
[1] = 23 mg/kg, 120 h, dose level High, time 5 day
[2] = […], 72 h, dose 2.3 mg/Kg, dose level Low, time 3 day
[3] = […], 120 h, dose 2.3 mg/Kg, dose level Low, time 5 day

Compound: COC(=O)C[C@](O)(CCC(C)(C)O)C(=O)O[C@@H]1C(OC)=C[C@]23CCCN2CCc2cc4c(cc2[C@H]13)OCO4 [HARRINGTONINE]
- ABSOLUTE BASOPHIL [1]: 0 CELLS/uL
- ABSOLUTE EOSINOPHIL [1]: 0 CELLS/uL
- ABSOLUTE LYMPHOCYTE [1]: 5612 CELLS/uL
- ABSOLUTE MONOCYTE [1]: 134.67 CELLS/uL
- ABSOLUTE SEGMENTED NEUTROPHIL [1]: 53.33 CELLS/uL
- BASOPHIL [1]: 0%
- EOSINOPHIL [1]: 0%
- ERYTHROCYTE COUNT [1]: 5.85 x10E6/uL
- HEMATOCRIT [1]: 36.17%
- HEMOGLOBIN [1]: 13.93 G/DL
- LEUKOCYTE COUNT [1]: 5.8 x10E3/uL
- LYMPHOCYTE [1]: 96.67%
- MEAN CORPUSCULAR HEMOGLOBIN [1]: 23.83 pg
- MEAN CORPUSCULAR HEMOGLOBIN CONCENTRATION [1]: 38.53 G/DL
- MEAN CORPUSCULAR VOLUME [1]: 61.87 fL
- MONOCYTE [1]: 2.33%
- NEUTROPHIL [1]: 1%
- NUCLEATED RED BLOOD CELLS [1]: 0 /100WBC
- PLATELET COUNT [1]: 414 x10E3/uL
- ALANINE AMINOTRANSFERASE [1]: 83 u/L
- ALBUMIN [1]: 3.47 G/DL
- ALKALINE PHOSPHATASE [1]: 214 u/L
- ASPARTATE AMINOTRANSFERASE [1]: 226.33 u/L
- BLOOD UREA NITROGEN [1]: 15.67 mg/dL
- CARBON DIOXIDE [1]: 24 mmol/L
- CHLORIDE [1]: 100.33 MEQ/L
- CHOLESTEROL [1]: 71 mg/dL
- CREATINE PHOSPHOKINASE [1]: 222 u/L
- CREATININE [1]: 0.27 mg/dL
- GLUCOSE [1]: 151.67 mg/dL
- LACTATE DEHYDROGENASE [1]: 292.33 u/L
- LIPASE [1]: 7.33 u/L
- PHOSPHORUS [1]: 9.13 mg/dL
- POTASSIUM [1]: 6.23 MEQ/L
- SODIUM [1]: 143.4 MEQ/L
- TOTAL BILIRUBIN [1]: 0.23 mg/dL
- TOTAL PROTEIN [1]: 5.73 G/DL
- URIC ACID [1]: 1.2 mg/dL
- ABSOLUTE BASOPHIL [2]: 0 CELLS/uL
- ABSOLUTE EOSINOPHIL [2]: 41.67 CELLS/uL
- ABSOLUTE LYMPHOCYTE [2]: 11224.33 CELLS/uL
- ABSOLUTE MONOCYTE [2]: 81.33 CELLS/uL
- ABSOLUTE SEGMENTED NEUTROPHIL [2]: 586 CELLS/uL
- BASOPHIL [2]: 0%
- EOSINOPHIL [2]: 0.33%
- ERYTHROCYTE COUNT [2]: 5.44 x10E6/uL
- HEMATOCRIT [2]: 34.9%
- HEMOGLOBIN [2]: 13.83 G/DL
- LEUKOCYTE COUNT [2]: 11.93 x10E3/uL
- LYMPHOCYTE [2]: 94%
- MEAN CORPUSCULAR HEMOGLOBIN [2]: 25.47 pg
- MEAN CORPUSCULAR HEMOGLOBIN CONCENTRATION [2]: 39.63 G/DL
- MEAN CORPUSCULAR VOLUME [2]: 64.17 fL
- MONOCYTE [2]: 0.67%
- NEUTROPHIL [2]: 5%
- NUCLEATED RED BLOOD CELLS [2]: 0 /100WBC
- PLATELET COUNT [2]: 1133.33 x10E3/uL
- ALANINE AMINOTRANSFERASE [2]: 48.67 u/L
- ALBUMIN [2]: 4.13 G/DL
- ALKALINE PHOSPHATASE [2]: 303.67 u/L
- ASPARTATE AMINOTRANSFERASE [2]: 64.33 u/L
- BLOOD UREA NITROGEN [2]: 15.67 mg/dL
- CARBON DIOXIDE [2]: 31.67 mmol/L
- CHLORIDE [2]: 101 MEQ/L
- CHOLESTEROL [2]: 51 mg/dL
- CREATINE PHOSPHOKINASE [2]: 184 u/L
- CREATININE [2]: 0.17 mg/dL
- GLUCOSE [2]: 163 mg/dL
- LACTATE DEHYDROGENASE [2]: 69 u/L
- LIPASE [2]: 8.67 u/L
- PHOSPHORUS [2]: 12.37 mg/dL
- POTASSIUM [2]: 6.49 MEQ/L
- SODIUM [2]: 146.83 MEQ/L
- TOTAL BILIRUBIN [2]: 0.2 mg/dL
- TOTAL PROTEIN [2]: 5.5 G/DL
- URIC ACID [2]: 2 mg/dL
- ABSOLUTE BASOPHIL [3]: 0 CELLS/uL
- ABSOLUTE EOSINOPHIL [3]: 0 CELLS/uL
- ABSOLUTE LYMPHOCYTE [3]: 10385.33 CELLS/uL
- ABSOLUTE MONOCYTE [3]: 95.33 CELLS/uL
- ABSOLUTE SEGMENTED NEUTROPHIL [3]: 1152.67 CELLS/uL
- BASOPHIL [3]: 0%
- EOSINOPHIL [3]: 0%
- ERYTHROCYTE COUNT [3]: 5.81 x10E6/uL
- HEMATOCRIT [3]: 35.2%
- HEMOGLOBIN [3]: 13.83 G/DL
- LEUKOCYTE COUNT [3]: 11.63 x10E3/uL
- LYMPHOCYTE [3]: 90.67%
- MEAN CORPUSCULAR HEMOGLOBIN [3]: 23.83 pg
- MEAN CORPUSCULAR HEMOGLOBIN CONCENTRATION [3]: 39.3 G/DL
- MEAN CORPUSCULAR VOLUME [3]: 60.6 fL
- MONOCYTE [3]: 0.67%
- NEUTROPHIL [3]: 8.67%
- NUCLEATED RED BLOOD CELLS [3]: 0.33 /100WBC
- PLATELET COUNT [3]: 1139 x10E3/uL
- ALANINE AMINOTRANSFERASE [3]: 52 u/L
- ALBUMIN [3]: 4.03 G/DL
- ALKALINE PHOSPHATASE [3]: 408.33 u/L
- ASPARTATE AMINOTRANSFERASE [3]: 89.67 u/L
- BLOOD UREA NITROGEN [3]: 18.67 mg/dL
- CARBON DIOXIDE [3]: 25 mmol/L
- CHLORIDE [3]: 102 MEQ/L
- CHOLESTEROL [3]: 60 mg/dL
- CREATINE PHOSPHOKINASE [3]: 576 u/L
- CREATININE [3]: 0.16 mg/dL
- GLUCOSE [3]: 170.33 mg/dL
- LACTATE DEHYDROGENASE [3]: 158.67 u/L
- LIPASE [3]: 8.67 u/L
- PHOSPHORUS [3]: 12.3 mg/dL
- POTASSIUM [3]: 6.27 MEQ/L
- SODIUM [3]: 145.13 MEQ/L
- TOTAL BILIRUBIN [3]: 0.2 mg/dL
- TOTAL PROTEIN [3]: 5.73 G/DL
- URIC ACID [3]: 1.6 mg/dL
